Measured values published in US7807439B2, “Staphylococcus aureus-specific detection media and identifying and/or counting method using same” (Biomerieux S.A., priority 2001, dated 2010).

What was measured:
[1] = tested on: coagulase-positive staphylococcal strains; experiment: Experiment 5: fluorescent substrates, summary for coagulase-positive strains; assay type: cell-based, Staphylococcus aureus and Staphylococcus intermedius
Method: (§1) The media below were prepared in the base of the medium described in experiment 1, but in the absence of agar and in the presence of a fluorescent substrate instead of a chromogenic substrate. […] The various liquid media are distributed into the cupules of a support the size of a bank card, specific for the automated VITEK 2 (trademark) system of the company bioMérieux. […] The results, given in table 9 below, represent the incubation time, in hours, required to obtain the maximum level of fluorescence which can be measured by the device: […]

S. epidermidis 009 = experiment: Experiment 5: fluorescent substrates in liquid medium, VITEK 2 reading; assay type: cell-based, Staphylococcus epidermidis; conditions: substrate 200 mg/l, read over 19 hours
Method: as §1

[2] = tested on: coagulase-negative strains; experiment: Experiment 5: fluorescent substrates, summary for coagulase-negative strains; assay type: cell-based
Method: as §1

S. xylosus 008 = experiment: Experiment 5: fluorescent substrates in liquid medium, VITEK 2 reading; assay type: cell-based, Staphylococcus xylosus; conditions: substrate 200 mg/l, read over 19 hours
Method: as §1

S. intermedius 075 [3] = experiment: as above; assay type: cell-based, Staphylococcus intermedius; conditions: substrate 200 mg/l, read over 19 hours
Method: as §1

S. saprophyticus 030 = experiment: as above; assay type: cell-based, Staphylococcus saprophyticus; conditions: substrate 200 mg/l, read over 19 hours
Method: as §1

S. haemolyticus 131 = experiment: as above; assay type: cell-based, Staphylococcus haemolyticus; conditions: substrate 200 mg/l, read over 19 hours
Method: as §1

S. aureus 070 = experiment: as above; assay type: cell-based, Staphylococcus aureus; conditions: substrate 200 mg/l, read over 19 hours
Method: as §1

S. aureus 276 [4] = experiment: as above; assay type: cell-based, Staphylococcus aureus; conditions: substrate 200 mg/l, read over 19 hours
Method: as §1

Staphylococcal species = experiment: Experiment 6: Staphylococcal growth in the presence of inhibitors; assay type: cell-based, Staphylococcus; conditions: inhibitors added to the medium, concentrations per mixture
S. saprophyticus 009 = experiment: Experiment 4: naphthol derivative substrates in API galleries, liquid medium; assay type: cell-based, Staphylococcus saprophyticus; design: key: the mark 0 corresponds to a negative reaction; marks 1, 2, 3 and 4 indicate intermediate levels of coloration and therefore of enzyme activity; marks 1, 2, 3 and 4 indicate intermediate levels of coloration and therefore of enzyme activity; marks 1, 2, 3 and 4 indicate intermediate levels of coloration and therefore of enzyme activity; marks 1, 2, 3 and 4 indicate intermediate levels of coloration and therefore of enzyme activity; the mark 5 to a reaction of maximum intensity; conditions: 4 hours of incubation at 37° C.
Method: (§2) The experiment below was carried out in a liquid medium and in the presence of naphthol derivative-based chromogenic substrates.
(§3) The medium and the substrates are distributed into API “galleries” (trademark) produced by the company bioMérieux at Marcy I'Etoile, France.
(§4) These “galleries” constitute a semi-quantitative method for searching for enzyme activities in microorganisms and make it possible to rapidly and simultaneously study nineteen enzyme activities. Each “gallery” comprises twenty cupules in which the solutions containing the enzyme substrates are distributed. The enzyme assays are carried out by distributing 65 μl of bacterial suspension at 5-6 McFarland into each cupule.
(§5) The intensity of coloration for each cupule is examined visually after 4 hours of incubation at 37° C. and after the addition of appropriate reagents: ZYM A (ref.: 70470) and ZYM B (ref.: 70480), which can be obtained from bioMérieux also mentioned above. The intensity of coloration will be directly proportional to the amount of substrate hydrolysed by the enzyme.
(§6) The values for the intensity of coloration are then marked on a results sheet according to the following classification: the mark 0 corresponds to a negative reaction, the mark 5 to a reaction of maximum intensity, marks 1, 2, 3 and 4 indicate intermediate levels of coloration and therefore of enzyme activity. More detailed information on this marking can be found in the API reading scale provided with the “galleries” of the same name.
(§7) The enzyme activity sought and the corresponding naphthol derivative substrates are described in table 6 below: […]

S. epidermidis 103 = experiment: as above; assay type: cell-based, Staphylococcus epidermidis; design: key: the mark 0 corresponds to a negative reaction; marks 1, 2, 3 and 4 indicate intermediate levels of coloration and therefore of enzyme activity; marks 1, 2, 3 and 4 indicate intermediate levels of coloration and therefore of enzyme activity; marks 1, 2, 3 and 4 indicate intermediate levels of coloration and therefore of enzyme activity; marks 1, 2, 3 and 4 indicate intermediate levels of coloration and therefore of enzyme activity; the mark 5 to a reaction of maximum intensity; conditions: 4 hours of incubation at 37° C.
Method: as §2, §3, §4, §5, §6, §7

S. aureus 276 [5] = experiment: as above; assay type: cell-based, Staphylococcus aureus; design: key to intensity of coloration (enzyme activity mark): the mark 0 corresponds to a negative reaction; marks 1, 2, 3 and 4 indicate intermediate levels of coloration and therefore of enzyme activity; marks 1, 2, 3 and 4 indicate intermediate levels of coloration and therefore of enzyme activity; marks 1, 2, 3 and 4 indicate intermediate levels of coloration and therefore of enzyme activity; marks 1, 2, 3 and 4 indicate intermediate levels of coloration and therefore of enzyme activity; the mark 5 to a reaction of maximum intensity; conditions: for intensity of coloration (enzyme activity mark): S. aureus 276, 4 hours of incubation at 37° C.
Method: as §2, §3, §4, §5, §6, §7

S. intermedius 075 [6] = experiment: as above; assay type: cell-based, Staphylococcus intermedius; design: key: the mark 0 corresponds to a negative reaction; marks 1, 2, 3 and 4 indicate intermediate levels of coloration and therefore of enzyme activity; marks 1, 2, 3 and 4 indicate intermediate levels of coloration and therefore of enzyme activity; marks 1, 2, 3 and 4 indicate intermediate levels of coloration and therefore of enzyme activity; marks 1, 2, 3 and 4 indicate intermediate levels of coloration and therefore of enzyme activity; the mark 5 to a reaction of maximum intensity; conditions: 4 hours of incubation at 37° C.
Method: as §2, §3, §4, §5, §6, §7

S. haemolyticus 137 = experiment: as above; assay type: cell-based, Staphylococcus haemolyticus; design: key: the mark 0 corresponds to a negative reaction; marks 1, 2, 3 and 4 indicate intermediate levels of coloration and therefore of enzyme activity; marks 1, 2, 3 and 4 indicate intermediate levels of coloration and therefore of enzyme activity; marks 1, 2, 3 and 4 indicate intermediate levels of coloration and therefore of enzyme activity; marks 1, 2, 3 and 4 indicate intermediate levels of coloration and therefore of enzyme activity; the mark 5 to a reaction of maximum intensity; conditions: 4 hours of incubation at 37° C.
Method: as §2, §3, §4, §5, §6, §7

α-glucosidase = experiment: Experiment 6: detection of α-glucosidase activity in the presence of inhibitors; assay type: cell-based, Staphylococcus; conditions: inhibitors added to the medium, concentrations per mixture

Compound	hours of incubation required to obtain the maximum level of fluorescence (S. epidermidis 009) [h]	hours of incubation required to obtain the maximum level of fluorescence (S. xylosus 008) [h]	hours of incubation required to obtain the maximum level of fluorescence (S. intermedius 075 [3]) [h]	hours of incubation required to obtain the maximum level of fluorescence (S. saprophyticus 030) [h]	hours of incubation required to obtain the maximum level of fluorescence (S. haemolyticus 131) [h]	hours of incubation required to obtain the maximum level of fluorescence (S. aureus 070) [h]	hours of incubation required to obtain the maximum level of fluorescence (S. aureus 276 [4]) [h]	intensity of coloration (enzyme activity mark) (S. saprophyticus 009)	intensity of coloration (enzyme activity mark) (S. epidermidis 103)	intensity of coloration (enzyme activity mark) (S. aureus 276 [5])	intensity of coloration (enzyme activity mark) (S. intermedius 075 [6])	intensity of coloration (enzyme activity mark) (S. haemolyticus 137)	further results
Cc1cc(=O)oc2cc(O[C@H]3O[C@H](CO)[C@@H](O)[C@H](O)[C@H]3O)ccc12 [4-MU-α-GLU, 4-methylumbelliferyl-α-D-glucoside]	19	11	5	19	19	8	7	–	–	–	–	–	incubation time to obtain a maximum level of fluorescence [1]: < 8 h; incubation time to obtain a maximum level of fluorescence [2]: > 10 h
Cc1cc(=O)oc2cc(O[C@@H]3O[C@H](CO)[C@H](O)[C@H](O)[C@H]3O)ccc12 [4-MU-β-GAL, 4-methylumbelliferyl-β-D-galactoside]	4	5	2	12	12	3	3	–	–	–	–	–	–
Cc1cc(=O)oc2cc(O[C@@H]3O[C@H](CO)[C@@H](O)[C@H](O)[C@H]3O)ccc12 [4-MU-β-GLU, 4-methylumbelliferyl-β-D-glucoside]	8	9	7	9	7	4	6	–	–	–	–	–	–
Cc1cc(=O)oc2cc(O[C@@H]3O[C@H](C(=O)O)[C@@H](O)[C@H](O)[C@H]3O)ccc12 [4-MU-β-GUR, 4-methylumbelliferyl-β-D-glucuronide]	4	5	2	19	19	3	3	–	–	–	–	–	–
[Cl-].[Li+] [LiCl, lithium chloride]	–	–	–	–	–	–	–	–	–	–	–	–	Staphylococcal growth (Staphylococcal species): decreases
O=P(O)(O)Oc1ccc2ccccc2c1 [No 2, 2-naphthyl-phosphate]	–	–	–	–	–	–	–	1	3	2	4	0	–
OC[C@H]1O[C@H](Oc2ccc3cc(Br)ccc3c2)[C@H](O)[C@@H](O)[C@H]1O [No 3, 6-bromo-2-naphthyl-α-D-galactopyranoside]	–	–	–	–	–	–	–	0	0	0	0	0	–
OC[C@H]1O[C@@H](Oc2ccc3ccccc3c2)[C@H](O)[C@@H](O)[C@H]1O [No 4, 2-naphthyl-β-D-galactopyranoside]	–	–	–	–	–	–	–	3	0	0	3	0	–
OC[C@H]1O[C@H](Oc2ccc3ccccc3c2)[C@H](O)[C@@H](O)[C@@H]1O [No 6, 2-naphthyl-α-D-glucopyranoside]	–	–	–	–	–	–	–	1	1	5	1	2	α-glucosidase activity (S. aureus 276 [5]; Staphylococcus aureus strain, API gallery): strongly expressed
OC[C@H]1O[C@@H](Oc2ccc3cc(Br)ccc3c2)[C@H](O)[C@@H](O)[C@@H]1O [No 7, 6-bromo-2-naphtyl-β-D-glucopyranoside]	–	–	–	–	–	–	–	0	0	0	0	0	–
C[C@H]1[C@H](NC(=O)/C(=N\OC(C)(C)C(=O)O)c2csc(N)n2)C(=O)N1S(=O)(=O)O [aztreonam]	–	–	–	–	–	–	–	–	–	–	–	–	Staphylococcal growth (Staphylococcal species): does not disturb the bacterial growth; effect on detection/expression of α-glucosidase (α-glucosidase): very slightly decreased
colistin	–	–	–	–	–	–	–	–	–	–	–	–	Staphylococcal growth (Staphylococcal species): virtually no effect
naphthol-β-D-glucuronide [No 5]	–	–	–	–	–	–	–	0	0	0	0	0	–
